# Test results from patent US9493444B2 (Merck Patent GmbH, priority 2012, dated 2016).
# Test system: Wnt pathway (TCF-dependent transcription in HEK293 luciferase reporter cell line with ER-DSH construct)
# Assay: Cellular assay for Wnt pathway activity (luciferase reporter)
# Assay type: cell-based
# Settings: Homo sapiens; Wnt pathway inhibition, HEK293 luciferase reporter cells (ER-DSH, TCF promoter), 24 hours incubation, estrogen-induced
# Procedure, shortened: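 Compounds (30 μM down to 1 nM) were incubated 24 h on cells induced for TCF-dependent transcription with estrogen. Luciferase activity was read by luminescence, normalized to untreated vehicle control, and fitted for IC50.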
row,Structure (SMILES),IC50
1,"COc1ccc(Oc2cncc(N(C)CCNC(=O)OC(C)(C)C)n2)cc1 [Compound 54, (2-{[6-(4-Methoxy-phenoxy)-pyrazin-2-yl]-methyl-amino}-ethyl)-carbamic acid tert-butyl ester]",1000 to 10000 nM
2,"CC(=O)NCCN(C)c1cncc(Oc2ccc(F)cc2)n1 [Compound 58, N-(2-{[6-(4-Fluoro-phenoxy)-pyrazin-2-yl]-methyl-amino}-ethyl)-acetamide]",1000 to 10000 nM
3,"CC(=O)N(C)CCN(C)c1cncc(Oc2ccc(C)cc2)n1 [Compound 52, N-Methyl-N-{2-[methyl-(6-p-tolyloxy-pyrazin-2-yl)-amino]-ethyl}-acetamide]",< 200 nM
4,"CN(C=O)CCNc1cncc(Oc2ccc(-c3cccc(N4CCN(C)CC4)n3)cc2)n1 [Compound 311, N-Methyl-N-[2-(6-{4-[6-(4-methyl-piperazin-1-yl)-pyridin-2-yl]-phenoxy}-pyrazin-2-ylamino)-ethyl]-formamide]",200 to 1000 nM
5,"CC(=O)N(C)CCN(C)c1cncc(Oc2ccc(-c3cc(C#N)ccn3)cc2)n1 [Compound 199, N-[2-({6-[4-(4-Cyano-pyridin-2-yl)-phenoxy]-pyrazin-2-yl}-methyl-amino)-ethyl]-N-methyl-acetamide]",< 200 nM
6,"CSc1ccc(Oc2cncc(N(C)CCN(C)C(C)=O)n2)cc1 [Compound 65, N-Methyl-N-(2-{methyl-[6-(4-methyl-sulfanyl-phenoxy)-pyrazin-2-yl]-amino}-ethyl)-acetamide]",< 200 nM
7,"CC(=O)N(C)CCN(C)c1cncc(Oc2ccc(-c3nc4cc(C#N)ccc4[nH]3)cc2)n1 [Compound 124, N-[2-({6-[4-(5-Cyano-1H-benzo-imidazo-2-yl)-phenoxy]-pyrazin-2-yl}-methyl-amino)-ethyl]-N-methyl-acetamide]",200 to 1000 nM
8,"CC(=O)N(C)CCN(C)c1cncc(Oc2ccc(-c3ccc(C#N)nc3)cc2)n1 [Compound 211, N-[2-({6-[4-(6-Cyano-pyridin-3-yl)-phenoxy]-pyrazin-2-yl}-methyl-amino)-ethyl]-N-methyl-acetamide]",< 200 nM
9,"CC(=O)N(C)CCN(C)c1cncc(Oc2ccc(CC(N)=O)cc2)n1 [Compound 117, 2-[4-(6-{[2-(Acetyl-methyl-amino)-ethyl]-methyl-amino}-pyrazin-2-yloxy)-phenyl]-acetamide]",200 to 1000 nM
10,"CC(=O)N(C)CCNc1cncc(Oc2ccc(-c3ccc(C#N)nc3)cc2)n1 [Compound 276, N-(2-{6-[4-(6-Cyano-pyridin-3-yl)-phenoxy]-pyrazin-2-ylamino}-ethyl)-N-methyl-acetamide]",200 to 1000 nM
11,"CC(=O)N(C)CCCc1cncc(Oc2ccc(-c3ccc(F)cn3)cc2)n1 [Compound 220, N-(3-{6-[4-(5-Fluoro-pyridin-2-yl)-phenoxy]-pyrazin-2-yl}-propyl)-N-methyl-acetamide]",1000 to 10000 nM
12,"CC(=O)N(C)CCN(C)c1cncc(OCc2ccc(F)cc2)n1 [Compound 104, N-(2-{[6-(4-Fluoro-benzyloxy)-pyrazin-2-yl]-methyl-amino}-ethyl)-N-methyl-acetamide]",1000 to 10000 nM
13,"CC(=O)N(C)CCN(C)c1cncc(Oc2ccc(O)cc2)n1 [Compound 56, N-(2-{[6-(4-Hydroxy-phenoxy)-pyrazin-2-yl]-methyl-amino}-ethyl)-N-methyl-acetamide]",200 to 1000 nM
14,CC(=O)N(C)CCN(C)c1cncc(Oc2ccc(-c3cccc(N4CCN(C)CC4)n3)cc2)n1 [Compound 12],< 200 nM
15,"CCOc1ccc(Oc2cncc(N(C)CCN(C)C(C)=O)n2)cc1 [Compound 123, N-(2-{[6-(4-Ethoxy-phenoxy)-pyrazin-2-yl]-methyl-amino}-ethyl)-N-methyl-acetamide]",< 200 nM
16,"CC(=O)N(C)CCN(C)c1cncc(Oc2ccc(-c3ccc(C)cn3)cc2)n1 [Compound 93, N-Methyl-N-[2-(methyl-{6-[4-(5-methyl-pyridin-2-yl)-phenoxy]-pyrazin-2-yl}-amino)-ethyl]-acetamide]",< 200 nM
17,"CC(=O)N(C)CCN(C)c1cncc(Oc2ccc(-c3ccc(=O)[nH]n3)cc2)n1 [Compound 151, N-Methyl-N-[2-(methyl-{6-[4-(6-oxo-1,6-dihydro-pyridazin-3-yl)-phenoxy]-pyrazin-2-yl}-amino)-ethyl]-acetamide]",200 to 1000 nM
18,"CCOC(=O)c1ccc(Oc2cncc(N(C)CCN(C)C(C)=O)n2)cc1 [Compound 115, 4-(6-{[2-(Acetyl-methyl-amino)-ethyl]-methyl-amino}-pyrazin-2-yloxy)-benzoic acid ethyl ester]",200 to 1000 nM
19,"CC(=O)N(C)CCN(C)c1cncc(Oc2ccc(F)cc2F)n1 [Compound 105, N-(2-{[6-(2,4-Difluoro-phenoxy)-pyrazin-2-yl]-methyl-amino}-ethyl)-N-methyl-acetamide]",200 to 1000 nM

row,Structure (SMILES),IC50
1,"CC(=O)N(C)CCN(C)c1cncc(Oc2ccc(-c3ccc(C(F)(F)F)cn3)cc2)n1 [Compound 162, N-Methyl-N-[2-(methyl-{6-[4-(5-trifluoro-methyl-pyridin-2-yl)-phenoxy]-pyrazin-2-yl}-amino)-ethyl]-acetamide]",200 to 1000 nM
2,"CC(=O)N(C)CCN(C)c1cncc(Oc2ccc(F)cc2)c1 [Compound 310, N-(2-{[5-(4-Fluoro-phenoxy)-pyridin-3-yl]-methyl-amino}-ethyl)-N-methyl-acetamide]",1000 to 10000 nM
3,"COc1ccc(Oc2cncc(NCC3CCCN(C(C)=O)C3)n2)cc1 (stereo not shown) [Compound 38, 1-(3-{[6-(4-Methoxy-phenoxy)-pyrazin-2-ylamino]-methyl}-piperidin-1-yl)-ethanone]",1000 to 10000 nM
4,"CC(=O)Nc1ccc(-c2ccc(Oc3cncc(N(C)CCN(C)C(C)=O)n3)cc2)cn1 [Compound 182, N-{5-[4-(6-{[2-(Acetyl-methyl-amino)-ethyl]-methyl-amino}-pyrazin-2-yloxy)-phenyl]-pyridin-2-yl}-acetamide]",< 200 nM
5,"CC(=O)N(C)CCN(C)c1cncc(Oc2ccc(-c3noc(C)n3)cc2)n1 [Compound 146, N-Methyl-N-[2-(methyl-{6-[4-(5-methyl-[1,2,4]oxadiazol-3-yl)-phenoxy]-pyrazin-2-yl}-amino)-ethyl]-acetamide]",200 to 1000 nM
6,"CC(=O)N(C)CCN(C)c1cncc(OC2Cc3ccccc3C2)n1 [Compound 223, N-(2-{[6-(Indan-2-yloxy)-pyrazin-2-yl]-methyl-amino}-ethyl)-N-methyl-acetamide]",200 to 1000 nM
7,"CC(=O)N(C)CCN(C)c1cncc(Oc2ccc(-c3ncccc3N3CCOCC3)cc2)n1 [Compound 164, N-Methyl-N-[2-(methyl-{6-[4-(3-morpholin-4-yl-pyridin-2-yl)-phenoxy]-pyrazin-2-yl}-amino)-ethyl]-acetamide]",1000 to 10000 nM
8,"CC(=O)N(C)CCN(C)c1cncc(Oc2ccc(-c3ccccn3)cc2)n1 [Compound 133, N-Methyl-N-(2-{methyl-[6-(4-pyridin-2-yl-phenoxy)-pyrazin-2-yl]-amino}-ethyl)-acetamide]",< 200 nM
9,"N#Cc1cnccc1-c1ccc(Oc2cncc(NCCN3CCCCC3=O)n2)cc1 [Compound 296, 4-(4-{6-[2-(2-Oxo-piperidin-1-yl)-ethylamino]-pyrazin-2-yloxy}-phenyl)-nicotinonitrile]",200 to 1000 nM
10,"COc1cc(C(C)=O)ccc1Oc1cncc(N(C)CCN(C)C(C)=O)n1 [Compound 243, N-(2-{[6-(4-Acetyl-2-methoxy-phenoxy)-pyrazin-2-yl]-methyl-amino}-ethyl)-N-methyl-acetamide]",1000 to 10000 nM
11,"CC(=O)N(C)CCN(C)c1cncc(Oc2ccc(S(C)(=O)=O)cc2)n1 [Compound 100, N-(2-{[6-(4-Methane-sulfonyl-phenoxy)-pyrazin-2-yl]-methyl-amino}-ethyl)-N-methyl-acetamide]",200 to 1000 nM
12,"CC(=O)N(C)CCN(C)c1cncc(Oc2ccc(-c3ccc(CN(C)C(=O)CCCCCNC(=O)CCCCC4SCC5NC(=O)NC54)nc3)cc2)n1 (stereo not shown) [Compound 272, 6-[5-(2-Oxo-hexahydro-thieno[3,4-d]imidazol-6-yl)-pentanoyl-amino]-hexanoic acid {5-[4-(6-{[2-(acetyl-methyl-amino)-ethyl]-methyl-amino}-pyrazin-2-yloxy)-phenyl]-pyridin-2-ylmethyl}-methyl-amide]",< 200 nM
13,"CC(=O)N(C)CCN(C)c1cncc(Oc2ccc(-c3ccc(N4CCN(C(=O)CCCCCNC(=O)CCCCC5SCC6NC(=O)NC65)CC4)nc3)cc2)n1 (stereo not shown) [Compound 287, 5-(2-Oxo-hexahydro-thieno[3,4-d]imidazol-6-yl)-pentanoic acid [6-(4-{5-[4-(6-{[2-(acetyl-methyl-amino)-ethyl]-methyl-amino}-pyrazin-2-yloxy)-phenyl]-pyridin-2-yl}-piperazin-1-yl)-6-oxo-hexyl]-amide]",< 200 nM
14,"CC(=O)N(C)CCN(C)c1cncc(Oc2ccc(-c3cc(N)ccn3)cc2)n1 [Compound 172, N-[2-({6-[4-(4-Amino-pyridin-2-yl)-phenoxy]-pyrazin-2-yl}-methyl-amino)-ethyl]-N-methyl-acetamide]",200 to 1000 nM
15,"COc1ccc(Oc2cncc(N(C)CCN(C)S(=O)(=O)c3cc(F)ccc3F)n2)cc1 [Compound 61, 2,5-Difluoro-N-(2-{[6-(4-methoxy-phenoxy)-pyrazin-2-yl]-methyl-amino}-ethyl)-N-methyl-benzene-sulfonamide]",1000 to 10000 nM
16,"CC(=O)N(C)CCN(C)c1cncc(Oc2ccc(/C=C/c3ccccn3)cc2)n1 [Compound 145, N-Methyl-N-[2-(methyl-{6-[4-((E)-2-pyridin-2-yl-vinyl)-phenoxy]-pyrazin-2-yl}-amino)-ethyl]-acetamide]",< 200 nM
17,"CC(=O)N(C)CCN(C)c1cncc(Oc2cnc3[nH]ccc3c2)n1 [Compound 250, N-Methyl-N-(2-{methyl-[6-(1H-pyrrolo[2,3-b]pyridin-5-yloxy)-pyrazin-2-yl]-amino}-ethyl)-acetamide]",1000 to 10000 nM
18,"CC(=O)NCCSc1cncc(Oc2ccc(F)cc2)n1 [Compound 119, N-{2-[6-(4-Fluoro-phenoxy)-pyrazin-2-ylsulfanyl]-ethyl}-acetamide]",1000 to 10000 nM
